pIC50: −log10 of the molar value. Structures can show the parent of a compound that is named as a salt.
Key:
[1] = biological target: T1, H. pylori MurI (Helicobacter pylori, UniProt Q9ZLT0); assay: Glutamate racemase (MurI) activity assay, coupled to L-glutamate dehydrogenase (LGDH), fluorescence readout; assay type: biochemical; conditions: 1000 nM H. pylori MurI, 40 μM D-glutamate, room temperature, read-out: LGDH I50
T1 sequence (Q9ZLT0 1-255): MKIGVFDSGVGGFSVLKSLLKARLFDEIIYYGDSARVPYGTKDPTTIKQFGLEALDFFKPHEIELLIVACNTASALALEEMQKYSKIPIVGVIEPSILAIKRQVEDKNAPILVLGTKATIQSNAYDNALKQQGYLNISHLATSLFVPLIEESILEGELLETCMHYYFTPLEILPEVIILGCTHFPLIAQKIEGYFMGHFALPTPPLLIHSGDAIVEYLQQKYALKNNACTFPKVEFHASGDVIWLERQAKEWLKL
Method: Glutamate Racemase Activity Assay:
Glutamate racemase (MurI) activity was assayed by measuring the conversion of glutamate from D to L enantiomer. This reaction was coupled to the reduction of NAD^+ to NADH by L-glutamate dehydrogenase (LGDH). LGDH from bovine liver was obtained as a lyophilized powder (Sigma #G-7882) and dissolved in 10 mM Tris (Sigma #T-6791), pH 7.5, buffer containing 0.1 mM EDTA (Fisher #BP118-500) and 50% glycerol (Sigma #G-9012). The assay mixture consisted of 100 mM Tris-HCl, pH 8.0, 10 mM β-NAD (Sigma #N-7004), 5 mM DTT (Sigma #D-5545), 0.03% PEG (mw 8000, Sigma #P-5413), 0.03 mg/mL BSA (Pierce #23210), 15 U/mL LGDH, D-glutamate (Fluka #49460), and purified MurI. The following MurI concentrations were used: 1000 nM H. pylori MurI, 0.7 nM E. faecalis MurI, or 0.4 nM E. coli MurI. In the case of E. coli MurI 14 μM UDP-MurNAc-Ala was also added. The final concentration of D-glutamate added for H. pylori MurI was 40 μM, and the other orthologs used 1 mM D-glutamate. The assay was performed in 96-well black microtiter plates (Greiner #XN2-9511) with a final assay volume of 100 μL. Compounds were prepared (x) […]
[…] as 20 mM stock solutions in dimethyl sulphoxide (DMSO, Sigma #D-5879) and serial dilutions were prepared from these solutions using DMSO, 2 μL of which were added to the wells. Activity at room temperature was measured by monitoring the increase in fluorescence using a TECAN Ultra platereader with 340 nm excitation and 465 nm emission filters. The compounds provided have measured IC50 of less then 400 μM

melting point [°C]	pIC50 [1]	Compound
75 to 77		CCC(C#N)n1c(=O)n(C)c(=O)c2c(-c3ccncc3)n(Cc3cccc4ccccc34)nc21 (racemic) (as salt: trifluoroacetate) [Example 130, ±2-[5-methyl-2-(1-naphthylmethyl)-4,6-dioxo-3-(4-pyridinyl-2,4,5,6-tetrahydro-7H-pyrazolo[3,4-d]pyrimidin-7-yl]butanenitrile]
	4.74	Cn1c(=O)c2c(-c3ccncc3)n(Cc3cccc4ccccc34)nc2n(CS(=O)(=O)C(F)(F)F)c1=O [Example 126, 5-methyl-2-(1-naphthylmethyl)-3-(4-pyridinyl)-7-{[(trifluoromethyl)sulfonyl]methyl}-2H-pyrazolo[3,4-d]pyrimidine-4,6(5H,7H)-dione]
107 to 109	4.59	Cn1c(=O)c2c(-c3ccncc3)n(Cc3cccc4ccccc34)nc2n(C[S+](C)[O-])c1=O (racemic) [Example 127, (±)5-methyl-7-[(methylsulfinyl)methyl]-2-(1-naphthylmethyl)-3-pyridin-4-yl-2H-pyrazolo[3,4-d]pyrimidine-4,6(5H,7H)-dione]
	5.04	CCC(C#N)n1c(=O)n(C)c(=O)c2c(-c3ccncc3)n(Cc3cccc4ccccc34)nc21 (racemic) [Example 130, ±2-[5-methyl-2-(1-naphthylmethyl)-4,6-dioxo-3-(4-pyridinyl-2,4,5,6-tetrahydro-7H-pyrazolo[3,4-d]pyrimidin-7-yl]butanenitrile]

Continued, molecule first:

Compound	melting point [°C]	pIC50 [1]
CC(C)Cn1c(=O)n(C)c(=O)c2c(-c3ccccc3F)n(Cc3csc4ccccc34)nc21 [Example 131, 2-(1-benzothiophen-3-ylmethyl)-3-(2-fluorophenyl)-7-isobutyl-5-methyl-2H-pyrazolo[3,4-d]pyrimidine-4,6(5H,7H)-dione]	55 to 57	
Cn1c(=O)c2c(-c3ccncc3)n(Cc3cccc4ccccc34)nc2n(C[S+]([O-])c2ccccc2)c1=O (stereo not shown) [Example 128, 5-methyl-2-(1-naphthylmethyl)-7-[(phenylsulfinyl)methyl]-3-pyridin-4-yl-2H-pyrazolo[3,4-d]pyrimidine-4,6(5H,7H)-dione]	130 to 135	
CC(C)Cn1c(=O)n(C)c(=O)c2c(-c3cccc(-c4nnn[nH]4)c3)n(Cc3cccc4ccccc34)nc21 [Example 129, 7-isobutyl-5-methyl-2-(1-naphthylmethyl)-3-[3-(1H-1,2,3,4-tetraazol-5-yl)phenyl]-2H-pyrazolo[3,4-d]pyrimidine-4,6(5H,7H)-dione]	251 to 254	5.80
Cn1c(=O)c2c(-c3ccncc3)n(Cc3cccc4ccccc34)nc2n(C[S+]([O-])C(F)(F)F)c1=O (racemic) [Example 125, (±)5-methyl-2-(1-naphthylmethyl)-3-(4-pyridinyl)-7-{[(trifluoromethyl)sulfinyl]methyl}-2H-pyrazolo[3,4-d]pyrimidine-4,6(5H,7H)-dione,7H)-dione]		4.34
